Test results from patent US7446111B2, “Amorphous rapamycin 42-ester with 3-hydroxy-2-(hydroxymethyl)-2-methylpropionic acid and its pharmaceutical compositions” (Wyeth, priority 2003, dated 2008).
Values after ≈ are worked out from the molar mass of the structure shown. Read-outs that look alike come from different tables or passages of the source.

Key:
physchem [1] = format: physicochemical
Protocol: A 0.005 M citric acid solution containing 0.2% sodium lauryl sulfate and 0.001% calcium EDTA was adjusted to a pH of about 4.73.
The solutions were then mixed, maintained at room temperature, and shaken on a rotary shaker for about 24 to about 48 hours.
Samples (2 mL) of both the amorphous and crystalline solutions were withdrawn at 24 h and 48 h, filtered through a 0.2 μm filter and analyzed at room temperature using high performance liquid chromatography (HPLC) (Table 4). Solubilities of the samples were then calculated using the data provided in the HPLC chromatograph and techniques used by those of skilled in the art and is provided in Table 4.

physchem [2] = format: physicochemical; details: for Solubility: pH 4.6
Protocol: The solutions were mixed and maintained at room temperature and a pH of about 4.6. The vials were then shaken on a rotary shaker for 24 hours.
Samples (2 mL) of both of the amorphous and crystalline solutions were withdrawn at selected time intervals (0, 0.5, 3, 5, and 24 h), filtered through a 0.2 μm filter and analyzed at room temperature using high performance liquid chromatography (HPLC) (Table 1). The solubility of the samples was calculated using the data provided in the HPLC chromatograph and techniques used by those skilled in the art and is provided in Table 3.

[3] = 25 °C, pH 4.73, aqueous with cosolvent or surfactant or cyclodextrin, thermodynamic from solid
[4] = 25 °C, pH 4.6, aqueous buffer, thermodynamic from solid
[5] = 5° C., 1 Week, sample prepared by precipitation
[6] = 40° C./75% RH, 1 Week, sample prepared by precipitation
[7] = Initial, sample prepared by precipitation
[8] = RT, 1 Week, sample prepared by precipitation
[9] = 5° C., 1 week, sample prepared by evaporation
[10] = 5° C., 2 weeks, sample prepared by evaporation
[11] = 40° C./75% RH, 1 week, sample prepared by evaporation
[12] = 40° C./75% RH, 2 weeks, sample prepared by evaporation
[13] = Initial, sample prepared by evaporation

For `CO[C@H]1C[C@@H]2CC[C@@H](C)[C@@](O)(O2)C(=O)C(=O)N2CCCC[C@H]2C(=O)O[C@H]([C@H](C)C[C@@H]2CC[C@@H](OC(=O)C(C)(CO)CO)[C@H](OC)C2)CC(=O)[C@H](C)/C=C(\C)[C@@H](O)[C@@H](OC)C(=O)[C@H](C)C[C@H](C)/C=C/C=C/C=C/1C` [Crystalline, rapamycin 42-ester with 3-hydroxy-2-(hydroxymethyl)-2-methylpropionic acid], the solubility at 24 h (physchem [1]; [3]) was 640 µg/mL (≈ 621 µM), the solubility at 48 h (physchem [1]; [3]) was 640 µg/mL (≈ 621 µM) and the Solubility (physchem [2]; 0 h) was 0 µg/mL. For the same compound, the solubility at 0.5 h (physchem [2]; [4]) was 0.26 µg/mL (≈ 0.252 µM), the solubility at 3 h (physchem [2]; [4]) was 0.29 µg/mL (≈ 0.281 µM) and the solubility at 5 h (physchem [2]; [4]) was 0.23 µg/mL (≈ 0.223 µM). The solubility at 24 h (physchem [2]; [4]) was 0.61 µg/mL (≈ 0.592 µM).

With `COC1CC2CCC(C)C(O)(O2)C(=O)C(=O)N2CCCCC2C(=O)OC(C(C)CC2CCC(OC(=O)C(C)(CO)CO)C(OC)C2)CC(=O)C(C)/C=C(\C)C(O)C(OC)C(=O)C(C)CC(C)/C=C/C=C/C=C/1C` (centres unmarked) [amorphous rapamycin 42-ester with 3-hydroxy-2-(hydroxymethyl] [rapamycin 42-ester with 3-hydroxy-2-(hydroxymethyl)-2-methylpropionic acid] the “Solubility relative to crystalline form” value (physchem [1]) was “about 3.5 times”, the Solubility (physchem [1]; pH 4.73) was “about 2.17 mg/mL” and the “Solubility relative to crystalline form” value (physchem [2]) was 3 times. For the same compound, the “Solubility relative to crystalline form (general statement)” value (physchem [2]) was “at least 3 times”, the Solubility (physchem [2]) was “about 1.88 μg/mL” and the “Temperature up to which the amorphous form is stable” value was “up to 5 °C”.

In the case of `COC1CC2CCC(C)C(O)(O2)C(=O)C(=O)N2CCCCC2C(=O)OC(C(C)CC2CCC(OC(=O)C(C)(CO)CO)C(OC)C2)CC(=O)C(C)/C=C(\C)C(O)C(OC)C(=O)C(C)CC(C)/C=C/C=C/C=C/1C` (centres unmarked) [Amorphous (batch C4), rapamycin 42-ester with 3-hydroxy-2-(hydroxymethyl)-2-methylpropionic acid], the SLI [5] is reported as 0.15%, the Strength [5] is reported as 98.71% and the “Total Imp” value [5] is reported as 0.44%. The SECO [6] was 0.04%, the SLI [6] was 0.32% and the Strength [6] was 91.36%. For the same compound, the “Total Imp” value [6] was 0.70%, the SLI [7] was 0.20% and the Strength [7] was 97.93%. For the same compound, the “Total Imp” value [7] was 0.41%, the SLI [8] was 0.12% and the Strength [8] was 97.49%. The “Total Imp” value [8] was 0.37%.

With `CO[C@H]1C[C@@H]2CC[C@@H](C)[C@@](O)(O2)C(=O)C(=O)N2CCCC[C@H]2C(=O)O[C@H]([C@H](C)C[C@@H]2CC[C@@H](OC(=O)C(C)(CO)CO)[C@H](OC)C2)CC(=O)[C@H](C)/C=C(\C)[C@@H](O)[C@@H](OC)C(=O)[C@H](C)C[C@H](C)/C=C/C=C/C=C/1C` [batch A1, rapamycin 42-ester with 3-hydroxy-2-(hydroxymethyl)-2-methylpropionic acid] the “SLI*” value [9] was 3.91%, the Strength [9] was 95.20% and the “Total Imp” value [9] was 5.07%. For the same compound, the “SLI*” value [10] was 3.74%, the Strength [10] was 92.56% and the “Total Imp” value [10] was 4.42%. For the same compound, the “SLI*” value [11] was 3.93%, the Strength [11] was 94.16% and the “Total Imp” value [11] was 5.15%. The “SLI*” value [12] was 3.72%, the Strength [12] was 90.55% and the “Total Imp” value [12] was 4.60%. The SLI [13] was 0.19%, the Strength [13] was “Strength = 98.33%,” and the “Total Imp” value [13] was 0.46%.
